What was measured:
Assay in all cases: radiometric filter-binding kinase assay
NTRK1 (human) = NTRK1 (human) (UniProt P04629)
MARK4 (human) = MARK4 (human) (UniProt Q96L34)
TAOK1 (human) = TAOK1 (human) (UniProt Q7L7X3)
CHEK2 (human) = CHEK2 (human) (UniProt O96017)
SRC (human) = SRC (human) (UniProt P12931)
RPS6KA3 KD1 KD2 (human) = RPS6KA3 KD1 KD2 (human) (UniProt P51812)
CDK2 CCNA2 (human) = CDK2 CCNA2 (human) (UniProt P20248+P24941)
HIPK1 (human) = HIPK1 (human) (UniProt Q86Z02)
STK3 (human) = STK3 (human) (UniProt Q13188)
STK3 (human), sequence (Q13188 whole entry, looked up): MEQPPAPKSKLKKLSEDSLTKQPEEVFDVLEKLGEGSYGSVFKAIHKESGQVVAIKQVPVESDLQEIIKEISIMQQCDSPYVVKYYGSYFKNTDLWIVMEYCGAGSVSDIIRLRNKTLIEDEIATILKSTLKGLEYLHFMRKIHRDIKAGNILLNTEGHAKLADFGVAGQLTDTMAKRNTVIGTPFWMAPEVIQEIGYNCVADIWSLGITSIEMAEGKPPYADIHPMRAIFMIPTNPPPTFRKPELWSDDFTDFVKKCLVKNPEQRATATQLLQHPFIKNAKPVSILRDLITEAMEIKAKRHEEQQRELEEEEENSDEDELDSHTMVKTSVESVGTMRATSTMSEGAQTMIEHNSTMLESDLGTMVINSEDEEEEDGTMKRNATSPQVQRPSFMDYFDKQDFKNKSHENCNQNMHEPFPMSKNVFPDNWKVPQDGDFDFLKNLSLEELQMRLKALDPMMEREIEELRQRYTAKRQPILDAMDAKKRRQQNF

CLK2 (human) = CLK2 (human) (UniProt P49760)
RPS6KA5 KD1 KD2 (human) = RPS6KA5 KD1 KD2 (human) (UniProt O75582)
RPS6KA5 KD1 KD2 (human), sequence (O75582 whole entry, looked up): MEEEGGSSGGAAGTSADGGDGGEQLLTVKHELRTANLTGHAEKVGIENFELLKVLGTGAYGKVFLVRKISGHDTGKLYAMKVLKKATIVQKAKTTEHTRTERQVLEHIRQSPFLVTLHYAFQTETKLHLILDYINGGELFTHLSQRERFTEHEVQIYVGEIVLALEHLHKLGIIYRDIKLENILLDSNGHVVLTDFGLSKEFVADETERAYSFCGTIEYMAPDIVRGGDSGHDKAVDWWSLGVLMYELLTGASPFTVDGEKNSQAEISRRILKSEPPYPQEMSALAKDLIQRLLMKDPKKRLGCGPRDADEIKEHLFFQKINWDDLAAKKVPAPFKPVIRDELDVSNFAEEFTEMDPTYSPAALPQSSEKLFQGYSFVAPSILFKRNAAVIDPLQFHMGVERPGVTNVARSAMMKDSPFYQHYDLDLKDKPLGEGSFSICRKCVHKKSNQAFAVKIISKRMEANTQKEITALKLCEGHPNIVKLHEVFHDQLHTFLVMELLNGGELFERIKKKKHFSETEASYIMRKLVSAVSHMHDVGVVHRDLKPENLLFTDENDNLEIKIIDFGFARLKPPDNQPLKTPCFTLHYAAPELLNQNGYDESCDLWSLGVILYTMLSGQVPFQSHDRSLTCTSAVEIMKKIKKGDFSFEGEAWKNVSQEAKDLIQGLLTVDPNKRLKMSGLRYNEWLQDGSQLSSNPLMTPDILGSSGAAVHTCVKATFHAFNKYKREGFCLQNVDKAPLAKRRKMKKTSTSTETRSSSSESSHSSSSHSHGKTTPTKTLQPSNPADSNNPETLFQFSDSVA

NUAK1 (human) = NUAK1 (human) (UniProt O60285)
PLK1 (human) = PLK1 (human) (UniProt P53350)
PLK1 (human), sequence (P53350 whole entry, looked up): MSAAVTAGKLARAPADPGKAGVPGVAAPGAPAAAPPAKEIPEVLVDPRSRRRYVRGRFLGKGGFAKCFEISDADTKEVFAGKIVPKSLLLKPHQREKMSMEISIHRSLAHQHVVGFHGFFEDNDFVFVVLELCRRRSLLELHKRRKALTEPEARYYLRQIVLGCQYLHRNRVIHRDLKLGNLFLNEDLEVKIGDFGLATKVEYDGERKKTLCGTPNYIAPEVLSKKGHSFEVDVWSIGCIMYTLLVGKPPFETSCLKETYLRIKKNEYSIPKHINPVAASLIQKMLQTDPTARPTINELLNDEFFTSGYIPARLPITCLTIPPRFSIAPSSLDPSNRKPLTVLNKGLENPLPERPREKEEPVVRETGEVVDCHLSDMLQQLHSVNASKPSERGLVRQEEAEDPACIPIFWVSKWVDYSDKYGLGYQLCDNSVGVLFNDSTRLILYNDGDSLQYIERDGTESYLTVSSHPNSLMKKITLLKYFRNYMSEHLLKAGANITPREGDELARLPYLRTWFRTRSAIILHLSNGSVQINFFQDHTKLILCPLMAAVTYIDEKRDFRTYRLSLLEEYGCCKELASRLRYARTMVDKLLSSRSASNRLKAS

MST4 (human) = MST4 (human) (UniProt Q9P289)
EEF2K (human) = EEF2K (human) (UniProt O00418)
RPS6KA1 KD1 KD2 (human) = RPS6KA1 KD1 KD2 (human) (UniProt Q15418)
HIPK3 (human) = HIPK3 (human) (UniProt Q9H422)
MAP3K1 (human) = MAP3K1 (human) (UniProt Q13233)
FLT1 (human) = FLT1 (human) (UniProt P17948)
MAPK1 (human) = MAPK1 (human) (UniProt P28482)
MAP3K5 (human) = MAP3K5 (human) (UniProt Q99683)
JAK2 JH1 JH2 (human) = JAK2 JH1 JH2 (human) (UniProt O60674)
ERBB4 (human) = ERBB4 (human) (UniProt Q15303)
PRKCZ (human) = PRKCZ (human) (UniProt Q05513)
MARK3 (human) = MARK3 (human) (UniProt P27448)
GCK (human) = GCK (human) (UniProt Q12851)
PAK6 (human) = PAK6 (human) (UniProt Q9NQU5)
EPHB4 (human) = EPHB4 (human) (UniProt P54760)
DAPK1 (human) = DAPK1 (human) (UniProt P53355)
MAPK3 (human) = MAPK3 (human) (UniProt P27361)
CHEK1 (human) = CHEK1 (human) (UniProt O14757)
CHEK1 (human), sequence (O14757 whole entry, looked up): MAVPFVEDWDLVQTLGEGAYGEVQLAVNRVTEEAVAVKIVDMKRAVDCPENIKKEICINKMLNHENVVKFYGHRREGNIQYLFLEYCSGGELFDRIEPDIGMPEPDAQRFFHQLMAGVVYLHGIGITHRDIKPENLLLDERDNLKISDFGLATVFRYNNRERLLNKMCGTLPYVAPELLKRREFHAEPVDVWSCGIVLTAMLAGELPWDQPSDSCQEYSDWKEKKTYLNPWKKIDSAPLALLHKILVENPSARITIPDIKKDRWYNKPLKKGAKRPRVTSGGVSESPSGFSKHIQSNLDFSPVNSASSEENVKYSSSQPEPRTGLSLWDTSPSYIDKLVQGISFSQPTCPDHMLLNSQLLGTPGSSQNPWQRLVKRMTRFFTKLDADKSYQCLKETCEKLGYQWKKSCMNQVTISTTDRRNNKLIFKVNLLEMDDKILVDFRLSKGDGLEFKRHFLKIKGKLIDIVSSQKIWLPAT

[1] = test system: SGK1 (human), O00141 [S422D]
SGK1 (human), O00141 [S422D], sequence (O00141 whole entry S422D, looked up): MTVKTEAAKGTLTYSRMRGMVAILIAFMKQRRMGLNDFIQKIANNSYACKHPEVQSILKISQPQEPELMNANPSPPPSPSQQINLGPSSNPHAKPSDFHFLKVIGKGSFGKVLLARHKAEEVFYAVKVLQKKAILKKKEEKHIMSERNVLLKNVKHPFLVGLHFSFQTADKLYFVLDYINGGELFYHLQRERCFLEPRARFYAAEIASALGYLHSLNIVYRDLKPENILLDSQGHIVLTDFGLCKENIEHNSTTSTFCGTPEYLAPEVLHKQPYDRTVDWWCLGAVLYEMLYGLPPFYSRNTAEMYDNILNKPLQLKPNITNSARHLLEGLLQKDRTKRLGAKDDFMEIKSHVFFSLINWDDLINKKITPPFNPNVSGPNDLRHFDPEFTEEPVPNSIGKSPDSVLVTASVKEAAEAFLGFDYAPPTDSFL

PRKCA (human) = PRKCA (human) (UniProt P17252)
AURKA (human) = AURKA (human) (UniProt O14965)
BRSK2 (human) = BRSK2 (human) (UniProt Q8IWQ3)
BRSK2 (human), sequence (Q8IWQ3 whole entry, looked up): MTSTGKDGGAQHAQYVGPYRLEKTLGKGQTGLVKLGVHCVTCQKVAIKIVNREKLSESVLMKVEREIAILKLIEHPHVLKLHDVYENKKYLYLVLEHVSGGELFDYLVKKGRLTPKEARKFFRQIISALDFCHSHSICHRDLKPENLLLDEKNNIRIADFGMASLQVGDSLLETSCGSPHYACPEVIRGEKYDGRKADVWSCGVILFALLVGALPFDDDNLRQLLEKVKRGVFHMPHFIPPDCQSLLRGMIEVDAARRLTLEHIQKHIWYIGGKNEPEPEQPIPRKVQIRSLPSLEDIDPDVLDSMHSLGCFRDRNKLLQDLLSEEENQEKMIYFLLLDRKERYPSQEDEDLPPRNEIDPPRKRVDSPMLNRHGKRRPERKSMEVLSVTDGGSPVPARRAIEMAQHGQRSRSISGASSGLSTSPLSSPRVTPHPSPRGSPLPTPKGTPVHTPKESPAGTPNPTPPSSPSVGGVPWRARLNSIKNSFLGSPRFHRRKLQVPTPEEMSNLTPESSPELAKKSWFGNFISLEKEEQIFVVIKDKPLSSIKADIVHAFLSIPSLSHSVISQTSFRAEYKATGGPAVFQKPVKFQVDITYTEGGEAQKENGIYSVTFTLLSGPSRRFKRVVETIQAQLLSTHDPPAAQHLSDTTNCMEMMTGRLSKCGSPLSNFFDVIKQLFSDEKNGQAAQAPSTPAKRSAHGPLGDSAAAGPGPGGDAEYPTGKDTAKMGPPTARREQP

SRC (human), sequence (P12931 whole entry, looked up): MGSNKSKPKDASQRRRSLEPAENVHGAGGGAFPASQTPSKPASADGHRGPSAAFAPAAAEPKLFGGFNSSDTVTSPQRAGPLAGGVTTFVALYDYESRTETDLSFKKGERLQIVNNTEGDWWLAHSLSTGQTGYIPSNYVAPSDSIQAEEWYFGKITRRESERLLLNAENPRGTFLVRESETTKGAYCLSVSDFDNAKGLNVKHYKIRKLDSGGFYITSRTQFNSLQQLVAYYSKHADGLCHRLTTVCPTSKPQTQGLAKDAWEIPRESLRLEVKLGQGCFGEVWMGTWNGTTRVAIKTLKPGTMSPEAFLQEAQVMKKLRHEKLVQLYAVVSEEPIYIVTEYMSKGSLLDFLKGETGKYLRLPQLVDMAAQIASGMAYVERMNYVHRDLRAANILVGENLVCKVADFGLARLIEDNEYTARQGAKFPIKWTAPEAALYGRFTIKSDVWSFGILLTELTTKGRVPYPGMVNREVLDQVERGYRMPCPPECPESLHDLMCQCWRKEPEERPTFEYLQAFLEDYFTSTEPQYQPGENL

**Q.** What does the source list for `N#Cc1c(O)c2c(-c3ccc(-c4ccccc4O)cc3)csc2[nH]c1=O`?
**A.** residual activity (NTRK1 (human); compound 10.0 µM): 69%; residual activity (NTRK1 (human); compound 100.0 µM): 28%; residual activity (MARK4 (human); compound 10.0 µM): 92%; residual activity (MARK4 (human); compound 100.0 µM): 45%; residual activity (TAOK1 (human); compound 10.0 µM): 83%; residual activity (TAOK1 (human); compound 100.0 µM): 18%; residual activity (CHEK2 (human); compound 10.0 µM): 79%; residual activity (CHEK2 (human); compound 50.0 µM): 52%; residual activity (CHEK2 (human); compound 100.0 µM): 33%; residual activity (SRC (human); compound 10.0 µM): 44%; residual activity (SRC (human); compound 50.0 µM): 65%; residual activity (SRC (human); compound 100.0 µM): 10%; residual activity (RPS6KA3 KD1 KD2 (human); compound 10.0 µM): 74%; residual activity (RPS6KA3 KD1 KD2 (human); compound 50.0 µM): 27%; residual activity (RPS6KA3 KD1 KD2 (human); compound 100.0 µM): 13%; residual activity (CDK2 CCNA2 (human); compound 10.0 µM): 100%; residual activity (CDK2 CCNA2 (human); compound 50.0 µM): 84%; residual activity (CDK2 CCNA2 (human); compound 100.0 µM): 121%; residual activity (HIPK1 (human); compound 10.0 µM): 74%; residual activity (HIPK1 (human); compound 100.0 µM): 35%; residual activity (STK3 (human); compound 10.0 µM): 60%; residual activity (STK3 (human); compound 50.0 µM): 36%; residual activity (STK3 (human); compound 100.0 µM): 20%; residual activity (CLK2 (human); compound 10.0 µM): 81%; residual activity (CLK2 (human); compound 100.0 µM): 30%; residual activity (RPS6KA5 KD1 KD2 (human); compound 10.0 µM): 69%; residual activity (RPS6KA5 KD1 KD2 (human); compound 50.0 µM): 39%; residual activity (RPS6KA5 KD1 KD2 (human); compound 100.0 µM): 42%; residual activity (NUAK1 (human); compound 10.0 µM): 61%; residual activity (NUAK1 (human); compound 100.0 µM): 10%; residual activity (PLK1 (human); compound 10.0 µM): 88%; residual activity (PLK1 (human); compound 50.0 µM): 28%; residual activity (PLK1 (human); compound 100.0 µM): 25%; residual activity (MST4 (human); compound 10.0 µM): 74%; residual activity (MST4 (human); compound 50.0 µM): 57%; residual activity (MST4 (human); compound 100.0 µM): 14%; residual activity (EEF2K (human); compound 10.0 µM): 89%; residual activity (EEF2K (human); compound 50.0 µM): 73%; residual activity (EEF2K (human); compound 100.0 µM): 64%; residual activity (RPS6KA1 KD1 KD2 (human); compound 10.0 µM): 80%; residual activity (RPS6KA1 KD1 KD2 (human); compound 50.0 µM): 9%; residual activity (RPS6KA1 KD1 KD2 (human); compound 100.0 µM): 12%; residual activity (HIPK3 (human); compound 10.0 µM): 97%; residual activity (HIPK3 (human); compound 50.0 µM): 52%; residual activity (HIPK3 (human); compound 100.0 µM): 43%; residual activity (MAP3K1 (human); compound 10.0 µM): 26%; residual activity (MAP3K1 (human); compound 100.0 µM): 7%; residual activity (FLT1 (human); compound 10.0 µM): 65%; residual activity (FLT1 (human); compound 100.0 µM): 11%; residual activity (MAPK1 (human); compound 10.0 µM): 103%; residual activity (MAPK1 (human); compound 50.0 µM): 74%; residual activity (MAPK1 (human); compound 100.0 µM): 49%; residual activity (MAP3K5 (human); compound 10.0 µM): 140%; residual activity (MAP3K5 (human); compound 100.0 µM): 250%; residual activity (JAK2 JH1 JH2 (human); compound 10.0 µM): 83%; residual activity (JAK2 JH1 JH2 (human); compound 100.0 µM): 32%; residual activity (ERBB4 (human); compound 10.0 µM): 33%; residual activity (ERBB4 (human); compound 100.0 µM): 8%; residual activity (PRKCZ (human); compound 10.0 µM): 96%; residual activity (PRKCZ (human); compound 50.0 µM): 67%; residual activity (PRKCZ (human); compound 100.0 µM): 28%; residual activity (MARK3 (human); compound 10.0 µM): 78%; residual activity (MARK3 (human); compound 50.0 µM): 87%; residual activity (MARK3 (human); compound 100.0 µM): 38%; residual activity (GCK (human); compound 10.0 µM): 76%; residual activity (GCK (human); compound 100.0 µM): 14%; residual activity (PAK6 (human); compound 10.0 µM): 69%; residual activity (PAK6 (human); compound 50.0 µM): 92%; residual activity (PAK6 (human); compound 100.0 µM): 82%; residual activity (EPHB4 (human); compound 10.0 µM): 82%; residual activity (EPHB4 (human); compound 100.0 µM): 49%; residual activity (DAPK1 (human); compound 10.0 µM): 107%; residual activity (DAPK1 (human); compound 100.0 µM): 83%; residual activity (MAPK3 (human); compound 10.0 µM): 83%; residual activity (MAPK3 (human); compound 50.0 µM): 102%; residual activity (MAPK3 (human); compound 100.0 µM): 63%; residual activity (CHEK1 (human); compound 10.0 µM): 69%; residual activity (CHEK1 (human); compound 50.0 µM): 98%; residual activity (CHEK1 (human); compound 100.0 µM): 43%; residual activity ([1]; compound 10.0 µM): 103%; residual activity ([1]; compound 50.0 µM): 54%; residual activity ([1]; compound 100.0 µM): 48%; residual activity (PRKCA (human); compound 10.0 µM): 94%; residual activity (PRKCA (human); compound 50.0 µM): 60%; residual activity (PRKCA (human); compound 100.0 µM): 90%; residual activity (AURKA (human); compound 10.0 µM): 93%; residual activity (AURKA (human); compound 100.0 µM): 64%; residual activity (BRSK2 (human); compound 10.0 µM): 64%; residual activity (BRSK2 (human); compound 50.0 µM): 63%; residual activity (BRSK2 (human); compound 100.0 µM): 28%

Reference: the kinase profiling compilation of Christmann-Franck et al. (2016)
